Source: patent publication US8383582B2, “Inhibitor against forming biofilm comprising κ-casein macropeptide” (Industry Foundation of Chonnam National University, priority 2010, dated 2013)

Experiments:
[1] = tested on: L. monocytogenes Scott A biofilm cells; test: Two-dimensional gel electrophoresis / LC-MS/MS of biofilm cell protein extracts; assay type: cell-based, Listeria monocytogenes
Protocol: This biofilm formation protocol was adapted from that used for the microtiter plate assay in this invention, to obtain a sufficient quantity of biofilm cells for two-dimensional gel electrophoresis (2-DE). Biofilms were prepared by using a slight modification of a previously described method (Ren et al., 2004). L. monocytogenes was grown in TSBYE overnight, and a 2.5 ml overnight culture was washed twice with PBS. Then, the cells were inoculated into a 250-ml shake flask containing 100 ml fresh MWB with or without the effective concentration of CMP on 10 g sterilized glass wool (Pyrex fiber glass; Corning, N.Y., USA). The cells were incubated with shaking (250 rpm in a shaking incubator; Vision Scientific Co., Ltd., Korea) at 30° C. to form a biofilm on the glass wool. After 24 h inoculation, the glass wool was retrieved from the culture, and quickly and gently washed twice in 100 ml of 0.85% sodium chloride buffer (within 30 s) at 4° C. The biofilm cells were removed from the glass wool by sonication in 200 ml of 0.85% sodium chloride buffer at 4° C. for 2 min. The buffer was then centrifuged (8,000×g in a VS-21S MT centrifuge; Vision Scientific Co., Ltd.) for 10 min at 4° C. to precipitate the biofilm cells. These cells were washed twice by centrifugation (8,000×g, 10 min, 4° C.) with 0.85% sodium chloride buffer; the cell pellets were flash-frozen in liquid nitrogen. While sonicating, suspended biofilm cells with an optical density at 600 nm of 2 were harvested by centrifugation (8,000×g) at room temperature for 10 min in an Eppendorf tube. The cell pellets were then flash-frozen in liquid nitrogen and kept at −80° C. until protein extraction.
The biofilm cells harvested from the glass wool were suspended in the same lysis buffer (TE buffer; 40 mM Tris, 1 mM EDTA, pH 8.0) and lysed by using Ultraschallprozessor UP200S (amplification 70, 0.5 cycle; Dr. Hielscher GmbH) 20 times for 30 s on ice. Following sonication, the unlysed cells, cell debris, and glass fibers were removed by centrifugation (8,000×g, 4° C.), and the supernatant fluids were recovered.
Protein samples were precipitated by using the phenol protocol of Hanna et al. (2000). The protein concentration was determined by using the modified Bradford assay method (Ramagli, 1999). The protein samples were stored at −80° C. until proteomic analysis.
The method described by Kim et al. (2006) with slight modifications was used for 2-DE. In the first dimension of isoelectric focusing (IEF), precast immobilized pH gradient (IPG) strips, with a nonlinear gradient from pH 3 to 10 (Bio-Rad Laboratories, Richmond, Calif., USA), were rehydrated for 12-18 h with 500 μg of protein in 300 μl of rehydration buffer (8 M urea, 2% CHAPS, 50 mM DTT, 10% isopropanol, 5% glycerol, 0.002% bromophenol blue, 0.2% ampholytes, water). In accordance with the manufacturer's instructions, focusing was performed by using a Protean IEF cell system (Bio-Rad Laboratories) at 20° C. under 60,000 Vh. After IEF, the strips were incubated for 10 min in equilibration buffer I (6 M urea, 2% SDS, 20% glycerol, 130 mM DTT, 0.375 M Tris-HCl [pH 8.8]), followed by another 10 min in equilibration buffer II (6 M urea, 2% SDS, 20% glycerol, 135 mM iodoacetamide, 0.375 M Tris-HCl [pH 8.8]). After equilibration, the strips were transferred to 12.5% sodium dodecyl sulfate (SDS)-polyacrylamide gels (20×22 cm) for running in the second dimension.
The proteins were separated by using a Protean II xi system (Bio-Rad Laboratories) with 20 mA per gel at 4° C. The protein spots were visualized by blue-silver staining (Candiano et al., 2004). The stained gels were then scanned with a densitometric scanner (UTA 2100XL; UMAX, Dallas, Tex., USA), and the spots were analyzed by using the PDQuest software (Bio-Rad Laboratories) in accordance with the manufacturer's instructions. Four gels resulting from two independent experiments were obtained, and two gels of good quality were used for analysis. […]

[2] = tested on: virulence-associated genes of L. monocytogenes; test: Semi-quantitative RT-PCR of virulence-associated genes; assay type: cell-based, Listeria monocytogenes; conditions: 0.4 mg/ml CMP; L. monocytogenes Scott A infected HT-29 cells
Protocol: The regulation of virulence-associated genes was investigated by using semi-quantitative RT-PCR techniques. Total RNA was isolated from the each treated samples using a RNeasy™ Total RNA Kit (Qiagen) with manufacturer's manuals. One μg total RNA was reverse transcribed in 20 μl reaction mixtures with SuperScript™ III First-Strand cDNA Synthesis Kit (Invitrogen, Carlsbad, Calif.). Then, cDNA were then amplified by using Taq DNA polymerase (TaKaRa, Japan). For the iap, denaturation for 5 min at 94° C. was followed by 40 cycles composed of 30 s denaturation at 94° C., 45 s annealing at 60° C. (TABLE 4), and 1 min elongation at 72° C. Except for the iap, denaturation for 5 min at 94° C. was followed by 35 cycles composed of 1 min denaturation at 94° C., 2 min annealing at 60° C. (TABLE 4), and 1 min elongation at 72° C. The last cycle was followed by 10 min final elongation at 72° C. Oligonucleotide (Bioneer, Daejun, Korea) sequences used for the amplification of each gene fragments including expression of proteins (HT-29) are shown in TABLE 4 (Haller et al., 2000). The RT-PCR products were electrophoresed in a 1.5% agarose gel and visualized by ethidium bromide (EtBr) staining. The intensity of each band was determined by densitometric analysis of gels using Kodak DC290 zoom digital camera and Kodak 1D image analysis software (Eastman Kodak Company, Rochester, N.Y., USA).

[3] = presence of 0.4 mg/ml CMP vs absence

With κ-casein macropeptide [CMP] the “protein spots with increase or decrease in amounts compared to the control” value ([1]; 0.4 mg/ml CMP, about 320 spots visualized) was “two and seven spots were up- and down-regulated”, the “FC, Fold difference in biofilm: spot 0302 enolase” value [1, 3] was −3.8 Fold and the “FC, Fold difference in biofilm: spot 2004 glutamine synthetase” value [1, 3] was “+2.4 Fold”. The “FC, Fold difference in biofilm: spot 4405 6-phosphofructokinase” value [1, 3] was −2.8 Fold, the “FC, Fold difference in biofilm: spot 5104 hypothetical protein Smal_0271” value [1, 3] was “∇” and the “FC, Fold difference in biofilm: spot 5105 conserved hypothetical protein” value [1, 3] was −2.0 Fold. For the same substance, the “FC, Fold difference in biofilm: spot 5206 Gap” value [1, 3] was “+2.9 Fold”, the “FC, Fold difference in biofilm: spot 5207 hypothetical protein Smal_0271” value [1, 3] was −2.4 Fold and the “FC, Fold difference in biofilm: spot 6103 glutamine synthetase” value [1, 3] was −2.0 Fold. For the same substance, the “FC, Fold difference in biofilm: spot 7202 phosphoglycerate mutase 1 family” value [1, 3] was −3.2 Fold, the “mRNA level of hlyA” value [2] was “significantly repressed” and the “mRNA level of iap” value [2] was “significantly repressed”. The “mRNA level of inlA” value [2] was “significantly repressed” and the “mRNA level of plcB” value [2] was “significantly repressed”.
